From paper PMC5454378, “Histone deacetylase 10 structure and molecular function as a polyamine deacetylase” (Nature Communications, 2017)

What was measured:
Type in all cases: biochemical
zHDAC10 [1] = biological target: T1, zHDAC10 (Danio rerio, UniProt F1QCV2); test: LC–MS deacetylase inhibition assay with N8-acetylspermidine; Ki by Cheng-Prusoff
T1 construct: gene hdac10; full-length, residues 2–675
T1 sequence (F1QCV2 2-675): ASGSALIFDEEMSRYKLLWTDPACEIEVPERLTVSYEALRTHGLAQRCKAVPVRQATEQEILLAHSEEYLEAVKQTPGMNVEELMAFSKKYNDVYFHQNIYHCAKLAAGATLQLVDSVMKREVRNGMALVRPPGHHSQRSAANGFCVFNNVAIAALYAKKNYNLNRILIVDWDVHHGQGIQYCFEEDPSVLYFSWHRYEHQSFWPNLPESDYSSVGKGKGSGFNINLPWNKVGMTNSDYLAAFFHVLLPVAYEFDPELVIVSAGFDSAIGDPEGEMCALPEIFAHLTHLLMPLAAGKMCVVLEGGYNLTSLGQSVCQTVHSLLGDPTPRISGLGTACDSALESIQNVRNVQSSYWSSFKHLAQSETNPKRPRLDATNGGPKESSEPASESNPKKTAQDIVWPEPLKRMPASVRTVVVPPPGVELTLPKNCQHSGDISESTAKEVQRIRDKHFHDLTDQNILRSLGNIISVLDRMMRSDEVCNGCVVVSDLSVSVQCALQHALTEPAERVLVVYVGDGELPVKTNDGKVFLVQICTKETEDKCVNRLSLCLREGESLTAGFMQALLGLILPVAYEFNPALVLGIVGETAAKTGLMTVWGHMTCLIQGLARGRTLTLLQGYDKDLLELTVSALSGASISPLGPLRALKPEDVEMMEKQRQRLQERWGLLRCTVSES

zHDAC10 [2] = biological target: T1, zHDAC10; test: LC–MS steady-state kinetics
hHDAC10 [3] = biological target: T2, hHDAC10 (Homo sapiens, UniProt Q969S8); test: LC–MS steady-state kinetics (kcat/KM)
T2 construct: gene HDAC10; full-length, residues 2–669, MBP fusion
T2 sequence (Q969S8 2-669): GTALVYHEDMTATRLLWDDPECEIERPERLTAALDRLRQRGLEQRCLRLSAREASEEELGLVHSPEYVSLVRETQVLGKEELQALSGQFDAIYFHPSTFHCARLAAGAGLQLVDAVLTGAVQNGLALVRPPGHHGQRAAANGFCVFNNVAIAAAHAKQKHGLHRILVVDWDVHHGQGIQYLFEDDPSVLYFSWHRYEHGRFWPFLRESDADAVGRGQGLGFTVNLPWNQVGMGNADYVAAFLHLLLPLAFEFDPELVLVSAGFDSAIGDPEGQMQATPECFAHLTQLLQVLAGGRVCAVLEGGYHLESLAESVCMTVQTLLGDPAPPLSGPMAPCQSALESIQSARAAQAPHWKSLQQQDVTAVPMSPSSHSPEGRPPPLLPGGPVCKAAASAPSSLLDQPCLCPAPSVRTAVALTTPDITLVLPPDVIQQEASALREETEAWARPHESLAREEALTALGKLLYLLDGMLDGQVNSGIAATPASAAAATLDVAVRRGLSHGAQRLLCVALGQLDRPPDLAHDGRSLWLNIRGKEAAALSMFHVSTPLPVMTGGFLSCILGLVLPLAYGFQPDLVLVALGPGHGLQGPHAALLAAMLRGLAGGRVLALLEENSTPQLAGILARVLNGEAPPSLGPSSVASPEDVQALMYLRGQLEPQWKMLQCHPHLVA

zHDAC10 [4] = biological target: T1, zHDAC10; test: LC–MS steady-state kinetics (kcat/KM)
hHDAC10 [5] = biological target: T2, hHDAC10; test: LC–MS steady-state kinetics

| Structure (SMILES) | LC-MS steady-state kinetics (zHDAC10 [2]) | LC-MS steady-state kinetics (hHDAC10 [5]) | other results |
| --- | --- | --- | --- |
| NCCCNCCCCCC(=O)C(F)(F)F [AAT, 7-[(3-aminopropyl)amino]-1,1,1-trifluoroheptan-2-one] | – | – | Ki (zHDAC10 [1]): 700 ± 200 nM |
| CC(=O)NCCCCCCCCN [AcDAO, N-(8-aminooctyl)acetamide] | also observed with acetylcadaverine and acetylputrescine, as well as N-(8-aminooctyl)acetamide | – | – |
| CC(=O)NCCCCNCCCN [N^8-AcSPD, N^8-acetylspermidine] | – | – | LC-MS steady-state kinetics (kcat/KM) (hHDAC10 [3]): 2,900±200 M^−1 s^−1; LC-MS steady-state kinetics (kcat/KM) (zHDAC10 [4]): 4,600±300 M^−1 s^−1 |
| CC(=O)NCCCCCN [AcCAD, acetylcadaverine] | substantial catalytic activity was also observed with acetylcadaverine and acetylputrescine | substantial catalytic activity was also observed with acetylcadaverine and acetylputrescine | – |
| CC(=O)NCCCCN [AcPUT, acetylputrescine] | substantial catalytic activity was also observed with acetylcadaverine and acetylputrescine | substantial catalytic activity was also observed with acetylcadaverine and acetylputrescine | – |
